Data as given in US20020099086A1, “Use of extracts from aristolochia in the treatment of AIDS” (PROTEOME SCIENCES PLC, priority 1998, published 2002).

Assays:
[1] = system: Salmonella typhimurium strain TA 100; assay: Ames bio-assay, antimutagenic activity against 2-amino-anthracene (2-AA) with S9 Mix; format: cell-based; details: for Residual mutagenic activity (%) observed for 2-AA: 1 μg 2-AA per plate, S9 Mix
Procedure: (§1) The four major constituents of the benzene extract from Aristolochia taliscana roots—eupomatenoid-7 (7), eupomatenoid-1 (8), eupomatenoid-8 (17), Licarin-A (16)—were tested for their mutagenic and antimutagenic properties using the Ames bio-assay (Maron, D. M. and Ames, B. N., Mutation reasearch, 1983, 113, 173). The test compounds have the following structural formula: [drawing 11]
(§2) Salmonella typhimurium strain TA 100 was used as the test organism and 2-amino-anthracene (2-AA) and 2-nitrofluorene (2-NF) as standard mutagens, of which 1 μg were added to each test plate. In the experiments with 2-AA, “S9 Mix” (derived from phenobarbital treated rat liver cells (De Flora, S., Camoirana, A., D'Agostini, F. and Balansky, R., Mutation Research, 1992, 267, 183) was also added.

[2] = system: Salmonella typhimurium strain TA 100; assay: Ames bio-assay, antimutagenic activity against 2-nitrofluorene (2-NF); format: cell-based; details: for Residual mutagenic activity (%) observed for 2-NF: 1 μg 2-NF per plate
Procedure: as §1, §2

brine shrimp = assay: Brine shrimp bioassay (cytotoxicity); format: in vivo; details: for LC50: brine shrimp, 24 hours
Procedure: The cytotoxicity of compounds isolated from Aristolochia taliscana was assayed using the well known brine shrimp bioassay. The cytotoxicities of compounds of the invention, expressed as percentage “death rates” after 24 hours, at varying concentrations, are shown in Table 8 below.

Botryis cinerea = assay: Antifungal plate diffusion method; format: cell-based; details: 150 microgramme aliquot spotted onto plate
Procedure: (§3) The antifungal activities of compounds of the invention was determined using a plate diffusion method. Plates containing medium and a fungal species were made up and 150 microgramme aliquots of a test compound of the invention were spotted onto the plate. The diameter of inhibition of fungal growth around the test compound was then determined.

Rhizoctonia solani = assay: Antifungal plate diffusion method; format: cell-based; details: 150 microgramme aliquot spotted onto plate
Procedure: as §3

Saprolegnia asterophora = assay: Antifungal plate diffusion method; format: cell-based; details: 150 microgramme aliquot spotted onto plate
Procedure: as §3

opiate mu receptor = opiate mu receptor (Homo sapiens, UniProt P35372); assay: Interaction with neurotransmitter receptors; format: binding
opiate mu receptor, sequence (P35372 whole entry): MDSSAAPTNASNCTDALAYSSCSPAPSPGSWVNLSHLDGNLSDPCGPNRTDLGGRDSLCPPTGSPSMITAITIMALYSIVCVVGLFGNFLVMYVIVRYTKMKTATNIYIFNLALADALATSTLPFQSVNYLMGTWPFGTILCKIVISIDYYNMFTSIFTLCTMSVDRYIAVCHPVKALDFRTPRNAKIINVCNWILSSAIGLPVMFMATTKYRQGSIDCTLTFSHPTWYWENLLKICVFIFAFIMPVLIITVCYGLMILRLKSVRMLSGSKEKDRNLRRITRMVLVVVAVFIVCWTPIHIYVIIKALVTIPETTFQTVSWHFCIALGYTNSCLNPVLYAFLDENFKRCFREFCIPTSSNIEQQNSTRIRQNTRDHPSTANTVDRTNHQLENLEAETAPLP

dopamine receptors = assay: Interaction with neurotransmitter receptors; format: binding
GABA receptors = assay: Interaction with neurotransmitter receptors; format: binding
serotonin receptors = assay: Interaction with neurotransmitter receptors; format: binding
[3] = system: remaining receptors of twenty seven common receptor types; assay: Interaction with neurotransmitter receptors; format: binding; details: twenty seven common receptor types tested
Parkinsonism = details: disclosed in U.S. Pat. No. 4782077; cited from earlier work

Compound | “Death Rate” After 24 Hours (%) (brine shrimp; 10 ppm) | “Death Rate” After 24 Hours (%) (brine shrimp; 100 ppm) | “Death Rate” After 24 Hours (%) (brine shrimp; 500 ppm) | LC50 (brine shrimp) | diameter of inhibition of fungal growth, Botryis cinerea (Botryis cinerea) | diameter of inhibition of fungal growth, Rhizoctonia solani (Rhizoctonia solani) | diameter of inhibition of fungal growth, Saprolegnia asterophora (Saprolegnia asterophora) | also measured
C/C=C/c1cc(OC)c2c(c1)[C@H](C)[C@@H](c1ccc(O)c(OC)c1)O2 [Licarin-A (16), Licarin-A] | 93% | 93% | 96% | <10 ppm | − | ++ (++ = 5-10 mm diameter inhibition) | − | antimutagenic effect against 2-aminoanthracene (in words) [1]: antimutagenically active; Residual mutagenic activity (%) observed for 2-AA ([1]; 50 μg compound added): 31%; Residual mutagenic activity (%) observed for 2-AA ([1]; 100 μg compound added): 6%; antimutagenic effect against 2-nitrofluorene (in words) [2]: not against 2-NF; Residual mutagenic activity (%) observed for 2-NF ([2]; 50 μg compound added): 94%; Residual mutagenic activity (%) observed for 2-NF ([2]; 100 μg compound added): 85%
C=CC(O)c1cc(OC)c2oc(-c3ccc(O)c(OC)c3)c(C)c2c1 (racemic) |  |  |  |  |  |  |  | melting point: 164 to 167 °C
COc1ccc2cc3c4c(cc(OC)c(OC)c4c2c1)C(=O)N3 [Aristolactam B (3), Aristolactam B III] | 5% | 9% | 29% | >500 ppm | − | + (+ = 5 mm diameter inhibition) | − | 
COc1cc(C=O)ccc1O [Vanillin (31), Vanillin] | 5% | 0% | 12% | >500 ppm | − | − | − | 
Aristolactam C III [Aristolactam C (4)] | 0% | 0% | 3% | >500 ppm | + (+ = 5 mm diameter inhibition) | + (+ = 5 mm diameter inhibition) | ++ (++ = 5-10 mm diameter inhibition) | 
C=C1/C=C/[C@@H](C(C)C)CC/C(C)=C/CC1 [E-Germacrene D (38), ent-Germacrene-D] | 0% | 39% | 100% | ca. 126 ppm | + (+ = 5 mm diameter inhibition) | + (+ = 5 mm diameter inhibition) | − | 
Taliscanine [Taliscanine (5)] |  |  |  |  |  |  |  | inhibition, opiate mu receptor (opiate mu receptor): 50%; activity at the dopamine receptors (dopamine receptors): negligible activity; activity at the GABA receptors (GABA receptors): negligible activity; activity at the serotonin receptors (serotonin receptors): negligible activity; levels of inhibition with the remaining receptors [3]: very poor levels of inhibition; symptoms of Parkinsonism and related neurological disorders (Parkinsonism): alleviates the symptoms of Parkinsonism and related neurological disorders
COc1cc(/C=C/CO)ccc1O [Coniferyl alcohol (29), Coniferyl alcohol] | 0% | 0% | 15% | >500 ppm | − | − | − | 
COc1cc(C2(C)COc3c(OC)cc(C=O)cc32)ccc1O (stereo not shown) |  |  |  |  |  |  |  | melting point: 162 to 165 °C
COc1cc2c(cc1C)C(=O)[C@H](O)C[C@@H]2C [Compound 34, (2R,4S)-2-Hydroxy-6-methoxy-4,7-dimethyl-1-tetralone] | 52% | 86% | 100% | <10 ppm | ++ (++ = 5-10 mm diameter inhibition) | ++ (++ = 5-10 mm diameter inhibition) | ++ (++ = 5-10 mm diameter inhibition) | 
COc1cc([C@@H]2c3cc4c(cc3[C@H](O)[C@H]3COC(=O)[C@H]23)OCO4)cc(OC)c1OC [Podophyllotoxin, reference compound] | 74% | 93% | 100% | <10 ppm |  |  |  | 
C/C=C/c1cc(OC)c2oc(-c3ccc(O)c(OC)c3)c(CO)c2c1 |  |  |  |  |  |  |  | melting point: 175 to 179 °C
CC=Cc1cc(OC)c2oc(-c3ccc4c(c3)OCO4)c(C)c2c1 [Eupomatenoid-1 (8), Eupomatenoid-1] | 12% | 16% | 20% | >500 ppm | − | − | − | antimutagenic effect against 2-aminoanthracene (in words) [1]: antimutagenically active; Residual mutagenic activity (%) observed for 2-AA ([1]; 50 μg compound added): 49%; Residual mutagenic activity (%) observed for 2-AA ([1]; 100 μg compound added): 44%; antimutagenic effect against 2-nitrofluorene (in words) [2]: not against 2-NF; Residual mutagenic activity (%) observed for 2-NF ([2]; 50 μg compound added): 99%; Residual mutagenic activity (%) observed for 2-NF ([2]; 100 μg compound added): 93%
COc1cc(-c2oc3c(OC)cc(/C=C/CO)cc3c2C)ccc1O |  |  |  |  |  |  |  | melting point: 180 to 183 °C
(+)(2R, 3R)-Dihydrocarinatidin [Dihydrocarinatidine (21)] | 26% | 53% | 80% | ca. 120 ppm | + (+ = 5 mm diameter inhibition) | + (+ = 5 mm diameter inhibition) | + (+ = 5 mm diameter inhibition) | 
CC=Cc1cc(OC)c2c(c1)C(C)C(c1ccc3c(c1)OCO3)O2 (single isomer, unassigned; (-)) [Eupomatenoid-8 (17)] | 9% | 27% | 42% | >500 ppm | − | − | − | antimutagenic effect against 2-aminoanthracene (in words) [1]: did not show any antimutagenic effect; Residual mutagenic activity (%) observed for 2-AA ([1]; 50 μg compound added): 90%; Residual mutagenic activity (%) observed for 2-AA ([1]; 100 μg compound added): 73%; antimutagenic effect against 2-nitrofluorene (in words) [2]: did not show any antimutagenic effect; Residual mutagenic activity (%) observed for 2-NF ([2]; 50 μg compound added): 100%; Residual mutagenic activity (%) observed for 2-NF ([2]; 100 μg compound added): 95%
C/C=C/c1cc(OC)c2oc(-c3ccc(O)c(OC)c3)c(C)c2c1 [Eupomatenoid-7 (7), Eupomatenoid-7] | 27% | 38% | 38% | >500 ppm | − | − | − | antimutagenic effect against 2-aminoanthracene (in words) [1]: strong antimutagenic effects; Residual mutagenic activity (%) observed for 2-AA ([1]; 50 μg compound added): 4%; Residual mutagenic activity (%) observed for 2-AA ([1]; 100 μg compound added): 0%; antimutagenic effect against 2-nitrofluorene (in words) [2]: strong antimutagenic effects; Residual mutagenic activity (%) observed for 2-NF ([2]; 50 μg compound added): 16%; Residual mutagenic activity (%) observed for 2-NF ([2]; 100 μg compound added): 0%
